According to BindingDB's records for doi:10.1016/s0960-894x(99)00243-7 (Eisai Research Institute, 1999):
Values joined by “and” are separate entries in the source; they are usually repeats but may differ in a detail not shown here. Equal values may be shown once.

Key:
[1] = Evaluated for cytotoxicity using P388/VMDRC.04 cells (a subline of P388 murine leukemia cells expressing human recombinant human P-glycoprotein) in the absence of 10 nM vincristine
[2] = Multidrug-resistant reversal activity using P388/VMDRC.04 cells (a subline of P388 murine leukemia cells expressing human recombinant human P-glycoprotein) in the presence of 10 nM vincristine
[3] = Evaluated for cytotoxicity using P388/VMDRC.04 cells (a subline of P388 murine leukemia cells expressing human recombinant human P-glycoprotein) in the absence of 10 nM vincristine; remark: listed apart in the source

Row | IC50 [2] | SMILES | IC50 [1] [µM] | IC50 [3] [µM]
1 | 5.5 µM and 5.4 µM | CCCCCCC[C@H]1OC(=O)C[C@H](OCOC)[C@H](Cc2ccccc2)N(C)C(=O)[C@H](C(C)C)OC(=O)[C@H]1C | 41.5 | 
2 | 42.7 µM | COCO[C@H]1CC(=O)O[C@H](C)[C@H](C)C(=O)OCC(=O)N(C)[C@H]1Cc1ccccc1 | > 100 | 
3 |  | CCCCCCC[C@@H]1CC(=O)O[C@@H](C(C)C)C(=O)N(C)[C@@H](Cc2ccccc2)[C@H](O)CC(=O)O1 | 24 | 6.2
4 |  | CCCCCCC[C@@H]1CC(=O)O[C@@H](C(C)C)C(=O)N(C)[C@@H](Cc2ccccc2)[C@H](OCOC)CC(=O)O1 | 34.4 | 6
5 |  | CCCCCCC[C@H]1OC(=O)C[C@@H](O)[C@H](Cc2ccccc2)N(C)C(=O)COC(=O)[C@H]1C | 22.5 | 5.8
6 | 18.1 µM | CCCC[C@H]1OC(=O)C[C@H](O)[C@H](Cc2ccccc2)N(C)C(=O)COC(=O)[C@H]1C | > 80 | 
7 |  | CC(C)[C@@H]1OC(=O)[C@@H](C)COC(=O)C[C@@H](O)[C@H](Cc2ccccc2)N(C)C1=O |  | 21.9
8 | 5.7 µM | CCCCCCC[C@H]1OC(=O)C[C@H](O)[C@H](Cc2ccccc2)N(C)C(=O)[C@H](C(C)C)OC(=O)[C@H]1C | 42.2 | 
9 |  | CCCCCCC[C@H]1OC(=O)CC[C@H](Cc2ccccc2)N(C)C(=O)[C@H](C(C)C)OC(=O)[C@H]1C | 33.7 | 6
10 | 5.6 µM | CCCCCCC[C@H]1OC(=O)C[C@H](OCOC)[C@H](Cc2ccccc2)N(C)C(=O)C(C)(C)OC(=O)[C@H]1C | 20 | 
11 |  | COCO[C@@H]1CC(=O)OC[C@H](C)C(=O)O[C@@H](C(C)C)C(=O)N(C)[C@H]1Cc1ccccc1 | > 100 | 10.4
12 | 14.9 µM | COCO[C@H](CC(=O)OC)[C@H](Cc1ccccc1)N(C)C(=O)OCc1ccccc1 | > 86 | 
13 | 6.2 µM | CCCCCCC[C@H]1OC(=O)C[C@@H](O)[C@H](Cc2ccccc2)N(C)C(=O)[C@H](C)OC(=O)[C@H]1C | 27.1 | 
14 |  | COC(=O)C[C@@H](O)[C@H](Cc1ccccc1)N(C)C(=O)OCc1ccccc1 | > 89 | 17.1
15 |  | CCCCCCC[C@H]1OC(=O)C[C@@H](OCOC)[C@H](Cc2ccccc2)N(C)C(=O)COC(=O)[C@H]1C | 15.1 | 2.3
16 |  | CC(C)[C@@H]1OC(=O)[C@@H](C)[C@@H](C)OC(=O)C[C@@H](O)[C@H](Cc2ccccc2)N(C)C1=O | > 100 | 15
17 | 4.3 µM | CCCCCCC[C@H]1OC(=O)C[C@H](O)[C@H](Cc2ccccc2)N(C)C(=O)C(C)(C)OC(=O)[C@H]1C | 28.4 | 
18 |  | CCCCCCC[C@H]1OC(=O)C[C@@H](OCOC)[C@H](Cc2ccccc2)N(C)C(=O)[C@H](C(C)C)OC(=O)[C@H]1C |  | 6.1
19 | > 100 µM | C[C@@H]1C(=O)OCC(=O)N(C)[C@@H](Cc2ccccc2)[C@@H](O)CC(=O)O[C@@H]1C | > 100 | 
20 |  | COCO[C@@H]1CC(=O)O[C@H](C)[C@H](C)C(=O)O[C@@H](C(C)C)C(=O)N(C)[C@H]1Cc1ccccc1 | > 75 | 7.5
21 | 16 µM | CCCCCCC[C@@H](O)[C@H](C)C(=O)O[C@H](C(=O)OC)C(C)C | > 83 | 
22 |  | CCCC[C@H]1OC(=O)C[C@H](OCOC)[C@H](Cc2ccccc2)N(C)C(=O)COC(=O)[C@H]1C |  | 11.7
23 | 5.9 µM | CCCCCCC[C@H]1OC(=O)C[C@@H](OCOC)[C@H](Cc2ccccc2)N(C)C(=O)[C@H](C)OC(=O)[C@H]1C | 19.3 | 
24 | 4.8 µM | CCCCCCC[C@H]1OC(=O)C[C@@H](O)[C@H](Cc2ccccc2)N(C)C(=O)[C@H](C(C)C)OC(=O)[C@H]1C [HAPALOSIN] | 14.8 | 
